Data reported in ChEMBL document CHEMBL1129369, “Forskolin carbamates: binding and activation studies with type I adenylyl cyclase” (J Med Chem, 1996).

Experiments:
Adenylate cyclase type 1 [1] = target: T1, Adenylate cyclase type 1 (Homo sapiens, UniProt Q08828); assay: Maximum stimulation activity measured with 100 uM forskolin mediated by adenylate cyclase 1; format: functional
Target sequence in this assay (Q08828 whole entry, looked up): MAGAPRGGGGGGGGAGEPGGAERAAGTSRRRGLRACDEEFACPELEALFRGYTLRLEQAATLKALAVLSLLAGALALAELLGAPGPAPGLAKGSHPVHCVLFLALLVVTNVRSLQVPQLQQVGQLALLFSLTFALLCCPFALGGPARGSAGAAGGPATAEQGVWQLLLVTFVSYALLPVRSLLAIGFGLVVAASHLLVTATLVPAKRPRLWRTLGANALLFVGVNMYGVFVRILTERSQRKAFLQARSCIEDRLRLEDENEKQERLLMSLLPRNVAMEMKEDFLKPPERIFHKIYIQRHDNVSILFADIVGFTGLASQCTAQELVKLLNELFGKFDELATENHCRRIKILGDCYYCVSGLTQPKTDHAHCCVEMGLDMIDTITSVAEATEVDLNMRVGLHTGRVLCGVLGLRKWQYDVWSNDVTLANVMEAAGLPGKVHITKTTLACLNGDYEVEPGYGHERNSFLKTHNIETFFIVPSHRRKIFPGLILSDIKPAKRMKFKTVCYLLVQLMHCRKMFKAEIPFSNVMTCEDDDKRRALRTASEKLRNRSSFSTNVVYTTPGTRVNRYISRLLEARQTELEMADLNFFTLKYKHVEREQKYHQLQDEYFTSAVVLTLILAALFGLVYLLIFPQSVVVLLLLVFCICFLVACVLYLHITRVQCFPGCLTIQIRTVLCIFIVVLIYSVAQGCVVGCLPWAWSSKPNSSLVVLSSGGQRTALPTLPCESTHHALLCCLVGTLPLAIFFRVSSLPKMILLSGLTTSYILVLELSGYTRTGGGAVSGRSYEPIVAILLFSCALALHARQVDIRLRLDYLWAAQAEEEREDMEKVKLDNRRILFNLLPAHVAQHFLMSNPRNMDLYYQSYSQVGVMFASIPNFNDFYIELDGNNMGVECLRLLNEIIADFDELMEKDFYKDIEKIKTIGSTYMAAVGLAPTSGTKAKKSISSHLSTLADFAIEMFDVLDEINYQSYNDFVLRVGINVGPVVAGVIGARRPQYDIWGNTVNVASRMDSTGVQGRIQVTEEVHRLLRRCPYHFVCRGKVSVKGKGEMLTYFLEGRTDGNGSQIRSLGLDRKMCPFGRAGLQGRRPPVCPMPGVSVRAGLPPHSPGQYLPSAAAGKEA

Adenylate cyclase type 1 [2] = target: T1, Adenylate cyclase type 1; assay: Conversion of [32P] ATP to [32P]-cyclic AMP mediated by adenylate cyclase 1; format: functional
Target sequence in this assay (Q08828 whole entry): as the sequence (Q08828 whole entry, looked up) above

Adenylate cyclase type 1 [3] = target: T1, Adenylate cyclase type 1; assay: (§1) Inhibition of [125 I]6-IHPP-forskolin binding to adenylate cyclase 1
Target sequence in this assay (Q08828 whole entry): as the sequence (Q08828 whole entry, looked up) above

Adenylate cyclase type 1 [4] = target: T1, Adenylate cyclase type 1; assay: Ability to activate the conversion of [32P] ATP to [32P]-cyclic AMP mediated by adenylate cyclase 1; format: functional
Target sequence in this assay (Q08828 whole entry): as the sequence (Q08828 whole entry, looked up) above

Adenylate cyclase type 1 [5] = target: T1, Adenylate cyclase type 1; assay: as §1; remark: listed apart in the source
Target sequence in this assay (Q08828 whole entry): as the sequence (Q08828 whole entry, looked up) above

| SMILES | Activity (Adenylate cyclase type 1 [1]) [%] | EC50 (Adenylate cyclase type 1 [2]; read-out: EC50) [µM] | IC50 (Adenylate cyclase type 1 [3]) [µM] | EC50 (Adenylate cyclase type 1 [4]) [µM] | IC50 (Adenylate cyclase type 1 [5]) [µM] | EC50 (Adenylate cyclase type 1 [2]) |
| --- | --- | --- | --- | --- | --- | --- |
| C=C[C@@]1(C)CC(=O)[C@]2(O)[C@@]3(C)[C@@H](O)CCC(C)(C)[C@@H]3[C@H](OC(=O)NCCO)[C@H](OC(C)=O)[C@@]2(C)O1 | 57 | 0.5 | < 0.15 | < 2 | 0.142 | – |
| C=C[C@@]1(C)CC(=O)[C@]2(O)[C@@]3(C)[C@@H](O)CCC(C)(C)[C@@H]3[C@H](OC(=O)NCC(C)C)[C@H](OC(C)=O)[C@@]2(C)O1 | 93 | 4.1 | > 0.15 | > 2 | 0.167 | – |
| C=C[C@@]1(C)CC(=O)[C@]2(O)[C@@]3(C)[C@@H](O)CCC(C)(C)[C@@H]3[C@H](OC(=O)NCCc3ccc(N)cc3)[C@H](O)[C@@]2(C)O1 | 83 | 5.1 | > 0.15 | > 2 | 0.162 | – |
| C=C[C@@]1(C)CC(=O)[C@]2(O)[C@@]3(C)[C@@H](O)CCC(C)(C)[C@@H]3[C@H](OC(=O)NCCC(=O)OCC)[C@H](OC(C)=O)[C@@]2(C)O1 | 157 | 3.5 | < 0.15 | > 2 | 0.044 | – |
| C=C[C@@]1(C)CC(=O)[C@]2(O)[C@@]3(C)[C@@H](O)CCC(C)(C)[C@@H]3[C@H](O)[C@H](OC(=O)NCCC(C)(C)C)[C@@]2(C)O1 | 58 | 9.6 | > 0.15 | > 2 | 0.608 | – |
| C=C[C@@]1(C)CC(=O)[C@]2(O)[C@@]3(C)[C@@H](O)CCC(C)(C)[C@@H]3[C@H](O)[C@H](OC(=O)NCCOC)[C@@]2(C)O1 | 97 | 1.6 | > 0.15 | > 2 | 0.174 | – |
| C=C[C@@]1(C)CC(=O)[C@]2(O)[C@@]3(C)[C@@H](O)CCC(C)(C)[C@@H]3[C@H](O)[C@H](OC(=O)NCCC(=O)OCC)[C@@]2(C)O1 | 127 | 3.6 | > 0.15 | > 2 | 0.185 | – |
| C=C[C@@]1(C)CC(=O)[C@]2(O)[C@@]3(C)[C@@H](O)CCC(C)(C)[C@@H]3[C@H](OC(=O)NCCC(C)(C)C)[C@H](OC(C)=O)[C@@]2(C)O1 | 84 | 8.1 | > 0.15 | > 2 | 0.271 | – |
| C=CCNC(=O)O[C@H]1[C@H]2C(C)(C)CC[C@H](O)[C@]2(C)[C@@]2(O)C(=O)C[C@](C)(C=C)O[C@]2(C)[C@H]1O | 94 | 3.5 | > 0.15 | > 2 | 0.306 | – |
| C=CCNC(=O)O[C@H]1[C@@H](O)[C@H]2C(C)(C)CC[C@H](O)[C@]2(C)[C@@]2(O)C(=O)C[C@](C)(C=C)O[C@]12C | 102 | 2.4 | > 0.15 | > 2 | 0.157 | – |
| C=C[C@@]1(C)CC(=O)[C@]2(O)[C@@]3(C)[C@@H](O)CCC(C)(C)[C@@H]3[C@H](OC(=O)NCCc3ccccc3)[C@H](OC(C)=O)[C@@]2(C)O1 | 65 | 1.5 | < 0.15 | < 2 | 0.036 | – |
| C=C[C@@]1(C)CC(=O)[C@]2(O)[C@@]3(C)[C@@H](O)CCC(C)(C)[C@@H]3[C@H](O)[C@H](OC(=O)NCC(C)C)[C@@]2(C)O1 | 72 | 2.7 | < 0.15 | > 2 | 0.112 | – |
| C=C[C@@]1(C)CC(=O)[C@]2(O)[C@@]3(C)[C@@H](O)CCC(C)(C)[C@@H]3[C@H](OC(=O)NCCN(C)C)[C@H](OC(C)=O)[C@@]2(C)O1 | 100 | 2 | < 0.15 | < 2 | 0.073 | – |
| C=C[C@@]1(C)CC(=O)[C@]2(O)[C@@]3(C)[C@@H](O)CCC(C)(C)[C@@H]3[C@H](OC(=O)NCC(C)C)[C@H](O)[C@@]2(C)O1 | 88 | 2.5 | > 0.15 | > 2 | 0.593 | – |
| C=C[C@@]1(C)CC(=O)[C@]2(O)[C@@]3(C)[C@@H](O)CCC(C)(C)[C@@H]3[C@H](OC(=O)NCCN3CCCCC3)[C@H](OC(C)=O)[C@@]2(C)O1 | 100 | 0.5 | < 0.15 | < 2 | 0.082 | – |
| C=C[C@@]1(C)CC(=O)[C@]2(O)[C@@]3(C)[C@@H](O)CCC(C)(C)[C@@H]3[C@H](OC(=O)NCCc3ccc(O)cc3)[C@H](O)[C@@]2(C)O1 | 86 | 0.63 | > 0.15 | < 2 | 0.236 | – |
| C=C[C@@]1(C)CC(=O)[C@]2(O)[C@@]3(C)[C@@H](O)CCC(C)(C)[C@@H]3[C@H](OC(=O)NCCc3ccccc3)[C@H](O)[C@@]2(C)O1 | 72 | 1.1 | < 0.15 | < 2 | 0.065 | – |
| C=C[C@@]1(C)CC(=O)[C@]2(O)[C@@]3(C)[C@@H](O)CCC(C)(C)[C@@H]3[C@H](OC(=O)NCCc3ccccn3)[C@H](OC(C)=O)[C@@]2(C)O1 | 97 | 0.6 | < 0.15 | < 2 | 0.021 | – |
| C=C[C@@]1(C)CC(=O)[C@]2(O)[C@@]3(C)[C@@H](O)CCC(C)(C)[C@@H]3[C@H](O)[C@H](OC(=O)NCC3CCCCC3)[C@@]2(C)O1 | 44 | 6.4 | > 0.15 | > 2 | 1.6 | – |
| C=C[C@@]1(C)CC(=O)[C@]2(O)[C@@]3(C)[C@@H](O)CCC(C)(C)[C@@H]3[C@H](OC(=O)NCCN3CCCCC3)[C@H](O)[C@@]2(C)O1 | 80 | 1.7 | < 0.15 | < 2 | 0.123 | – |
| C=CCNC(=O)O[C@H]1[C@H]2C(C)(C)CC[C@H](O)[C@]2(C)[C@@]2(O)C(=O)C[C@](C)(C=C)O[C@]2(C)[C@H]1OC(C)=O | 80 | 4.4 | < 0.15 | > 2 | 0.076 | – |
| C=C[C@@]1(C)CC(=O)[C@]2(O)[C@@]3(C)[C@@H](O)CCC(C)(C)[C@@H]3[C@H](OC(=O)NCCc3ccc(N)cc3)[C@H](OC(C)=O)[C@@]2(C)O1 | 55 | 0.5 | < 0.15 | < 2 | 0.039 | – |
| C=C[C@@]1(C)CC(=O)[C@]2(O)[C@@]3(C)[C@@H](O)CCC(C)(C)[C@@H]3[C@H](O)[C@H](OC(=O)NCCN)[C@@]2(C)O1 | 85 | 0.7 | < 0.15 | < 2 | 0.128 | – |

Continued by falling IC50 (Adenylate cyclase type 1 [5]), values first:

| Activity (Adenylate cyclase type 1 [1]) [%] | EC50 (Adenylate cyclase type 1 [2]; read-out: EC50) [µM] | IC50 (Adenylate cyclase type 1 [3]) [µM] | EC50 (Adenylate cyclase type 1 [4]) [µM] | IC50 (Adenylate cyclase type 1 [5]) [µM] | EC50 (Adenylate cyclase type 1 [2]) | SMILES |
| --- | --- | --- | --- | --- | --- | --- |
| 63 | 2.1 | > 0.15 | > 2 | 0.68 | – | C=C[C@@]1(C)CC(=O)[C@]2(O)[C@@]3(C)[C@@H](O)CCC(C)(C)[C@@H]3[C@H](OC(=O)NCCC(C)(C)C)[C@H](O)[C@@]2(C)O1 |
| 75 | 2.1 | > 0.15 | > 2 | 0.251 | – | C=C[C@@]1(C)CC(=O)[C@]2(O)[C@@]3(C)[C@@H](O)CCC(C)(C)[C@@H]3[C@H](O)[C@H](OC(=O)NCCc3ccccc3)[C@@]2(C)O1 |
| 131 | 4.9 | > 0.15 | > 2 | 0.247 | – | C=C[C@@]1(C)CC(=O)[C@]2(O)[C@@]3(C)[C@@H](O)CCC(C)(C)[C@@H]3[C@H](OC(=O)NCCN(C)C)[C@H](O)[C@@]2(C)O1 |
| 85 | 3.6 | > 0.15 | > 2 | 0.23 | – | C=C[C@@]1(C)CC(=O)[C@]2(O)[C@@]3(C)[C@@H](O)CCC(C)(C)[C@@H]3[C@H](OC(=O)NCCO)[C@H](O)[C@@]2(C)O1 |
| – | – | – | – | 0.192 | Indeterminate | C=C[C@@]1(C)CC(=O)[C@]2(O)[C@@]3(C)[C@@H](O)CCC(C)(C)[C@@H]3[C@H](OC(=O)NCCN)[C@H](O)[C@@]2(C)O1 |
| 75 | 6.5 | > 0.15 | > 2 | 0.171 | – | C=C[C@@]1(C)CC(=O)[C@]2(O)[C@@]3(C)[C@@H](O)CCC(C)(C)[C@@H]3[C@H](OC(=O)NCCC(=O)OCC)[C@H](O)[C@@]2(C)O1 |
| 91 | 1.1 | < 0.15 | < 2 | 0.143 | – | C=C[C@@]1(C)CC(=O)[C@]2(O)[C@@]3(C)[C@@H](O)CCC(C)(C)[C@@H]3[C@H](O)[C@H](OC(=O)NCCc3ccccn3)[C@@]2(C)O1 |
| 74 | 6.6 | > 0.15 | > 2 | 0.117 | – | C=C[C@@]1(C)CC(=O)[C@]2(O)[C@@]3(C)[C@@H](O)CCC(C)(C)[C@@H]3[C@H](OC(=O)NCC3CCCCC3)[C@H](OC(C)=O)[C@@]2(C)O1 |
| 59 | 1.8 | < 0.15 | < 2 | 0.117 | – | C=C[C@@]1(C)CC(=O)[C@]2(O)[C@@]3(C)[C@@H](O)CCC(C)(C)[C@@H]3[C@H](OC(=O)NCCc3ccccn3)[C@H](O)[C@@]2(C)O1 |
| 45 | 1.4 | < 0.15 | < 2 | 0.095 | – | C=C[C@@]1(C)CC(=O)[C@]2(O)[C@@]3(C)[C@@H](O)CCC(C)(C)[C@@H]3[C@H](O)[C@H](OC(=O)NCCc3ccc(O)cc3)[C@@]2(C)O1 |
| 101 | 1.3 | < 0.15 | < 2 | 0.089 | – | C=C[C@@]1(C)CC(=O)[C@]2(O)[C@@]3(C)[C@@H](O)CCC(C)(C)[C@@H]3[C@H](O)[C@H](OC(=O)NCCC)[C@@]2(C)O1 |
| 71 | 0.7 | < 0.15 | < 2 | 0.032 | – | C=C[C@@]1(C)CC(=O)[C@]2(O)[C@@]3(C)[C@@H](O)CCC(C)(C)[C@@H]3[C@H](OC(=O)NCCOC)[C@H](OC(C)=O)[C@@]2(C)O1 |
| 125 | 0.6 | < 0.15 | < 2 | 0.031 | – | C=C[C@@]1(C)CC(=O)[C@]2(O)[C@@]3(C)[C@@H](O)CCC(C)(C)[C@@H]3[C@H](OC(=O)NCCN)[C@H](OC(C)=O)[C@@]2(C)O1 |
